Experimental data published in patent publication US20220363662A1, “COMPOUNDS AS LXR AGONISTS” (Integral Biosciences Privated Limited, priority 2021, published 2022).

Columns and labels:
HepG2 = assay: Cell viability assay (resazurin) in HepG2; assay type: cell-based; conditions: Homo sapiens, 96 hr exposure
Protocol: (§1) HepG2 (ATCC® HB-8065™), hepatocellular carcinoma, A549 (ATCC® CCL-185™), lung epithelial carcinoma, MCF7 (ATCC® HTB-22™), mammary gland epithelial carcinoma, MDA-MB-231 (ATCC® HTB-26™), TNBC, MiaPaCa-2 (ATCC® CRL-1420™) & Panc-1 (ATCC® CRL-1469™), pancreatic epithelial carcinoma, HCT116 (ATCC® CCL-247™), colon epithelial carcinoma and U87MG (ATCC® HTB-14™), brain epithelial carcinoma cell lines respectively were seeded in the respective medium (DMEM, Cat #10569044 with 10% FBS, Cat #16000044; Gibco for HepG2, A549, MCF7, MDA-MB-231, MiaPaCa-2, Panc-1, HCT116 and MEM, Cat #11095080 with 10% FBS for U87MG). Cells were allowed to grow at 37° C. for 24 hr in 5% CO2 (culture conditions) in a Nuaire incubator (humidified). Serially diluted compounds (100 μl) were added to the culture plate 24 hr later and the cultures were further incubated in culture conditions for 96 hr. Experiment was terminated at the completion of 96 hr exposure to the drug by replacing the medium with 100 μl of 1 mM of resazurin (R7017; Sigma) prepared in culture medium and the plates were further incubated in culture conditions for 4 hr. Fluorescence was then measured using a multimodal plate reader (Biotek Synergy Neo) at an excitation wavelength of 535 nm and emission wavelength of 590 nm to obtain relative fluorescence units. Data analysis was done by subtracting the background fluorescence (only medium blank) value from each reading and then normalizing with the vehicle control (DMSO treated cells) to obtain percent survival/proliferation. Percent survival at different doses was used to calculate IC50 by fitting the curve to the “four-parameter variable slope logistic model” using Prism Graph Pad.

A549 = assay: Cell viability assay (resazurin) in A549; assay type: cell-based; conditions: Homo sapiens, 96 hr exposure
Protocol: as §1

LXR alpha = molecular target: T1, LXR alpha (Homo sapiens, UniProt Q13133); assay: LXR alpha agonist assay (Lanthascreen TR-FRET); assay type: biochemical; conditions: LXR alpha-LBD 2.5 nM, read-out: LXR-α EC50
T1 construct: 5 μL of 4×LXR alpha-LBD was added to each well (final concentration 2.5 nM); purchased Thermofisher PV4655
T1 sequence (Q13133 209-447 limits assumed): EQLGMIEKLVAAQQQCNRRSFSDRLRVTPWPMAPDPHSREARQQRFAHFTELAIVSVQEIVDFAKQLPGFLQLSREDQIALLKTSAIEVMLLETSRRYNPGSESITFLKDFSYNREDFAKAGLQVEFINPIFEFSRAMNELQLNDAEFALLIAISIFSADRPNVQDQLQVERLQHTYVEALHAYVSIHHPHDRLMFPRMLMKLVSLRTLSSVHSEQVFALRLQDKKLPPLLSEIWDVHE
Protocol: EC50 values of compounds against LXR alpha were determined at Integral BioSciences (India) using Lanthascreen TR-FRET (Thermofisher, Cat #PV4655). Assay was performed in a 20 μL final volume in a Black 384-well plate (Corning, Cat #4511). Dose response curve for the compounds were prepared in duplicates with starting concentration at 30 μM and a three-fold titration was performed. The reaction buffer consisted of TR-FRET Coregulator Buffer H. To the compound dilution, 5 μL of 4×LXR alpha-LBD was added to each well (final concentration 2.5 nM). An equal volume (5 μL) containing 4×Fl-D22/Tb-anti GST antibody (final concentration 250 nM/10 nM) was added to initiate the enzyme reaction and the reaction was incubated for 60 min at 22° C. after which the plates were read using BioTek Plate reader for TR-FRET every hour up to 4 hours.
Analysis was done using the standard curve by non-linear regression, variable slope inhibitor curve fits (Graph-Pad Prism) and EC50's of compounds were determined wherever possible.

LXR beta = molecular target: T2, LXR beta (Homo sapiens, UniProt P55055); assay: LXR beta agonist assay (Lanthascreen TR-FRET); assay type: biochemical; conditions: LXR beta-LBD 5 nM, read-out: LXR-β EC50
T2 construct: 5 μL of 4×LXR beta-LBD was added to each well (final concentration 5 nM); purchased Thermofisher PV4658
T2 sequence (P55055 222-460 limits assumed): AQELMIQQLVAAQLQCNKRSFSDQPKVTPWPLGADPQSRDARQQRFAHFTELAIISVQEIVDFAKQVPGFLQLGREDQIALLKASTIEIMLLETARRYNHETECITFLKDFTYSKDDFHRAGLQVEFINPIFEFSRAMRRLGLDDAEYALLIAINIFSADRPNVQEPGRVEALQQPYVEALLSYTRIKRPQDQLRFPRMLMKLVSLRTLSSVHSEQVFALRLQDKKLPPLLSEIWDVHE
Method in brief: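 TR-FRET coactivator recruitment: 5 nM LXR beta-LBD with 100 nM Fl-D22 peptide and 10 nM Tb-anti-GST antibody (final) in Coregulator Buffer G, 60 min at 22° C, read hourly up to 4 hours. Duplicate three-fold titrations from 30 μM; EC50 by variable-slope nonlinear regression.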

MDA-MB-231 = assay: Cell viability assay (resazurin) in MDA-MB-231; assay type: cell-based; conditions: Homo sapiens, 96 hr exposure, read-out: MDA_MB-231 Cell IC50
Protocol: as §1

HCT116 = assay: Cell viability assay (resazurin) in HCT116; assay type: cell-based; conditions: Homo sapiens, HCT-116; 96 hr exposure
Protocol: as §1

THP1 = assay: Cell viability assay in THP1; assay type: cell-based; conditions: Homo sapiens, THP-1
MCF7 = assay: Cell viability assay (resazurin) in MCF7; assay type: cell-based; conditions: Homo sapiens, 96 hr exposure
Protocol: as §1

SMILES | IC50 (HepG2) [µM] | IC50 (A549) [µM] | EC50 (LXR alpha) [µM] | EC50 (LXR beta) [µM] | IC50 (MDA-MB-231) [µM] | IC50 (HCT116) [µM] | IC50 (THP1) [µM] | IC50 (MCF7) [µM]
CN(C)C(=O)c1ccc(N2CCN(C3CC4(C3)CN(C(=O)[C@](O)(c3ccccc3)C(F)(F)F)C4)CC2)cc1Cl (single isomer, unassigned) [Compound 1.17] | 22.6 | > 30 | 10.6 | 0.156 | > 30 | – | – | –
CN(C)C(=O)c1ccc(N2CCN(C3CC4(C3)CN(C(=O)[C@@](O)(c3ccccc3)C(F)(F)F)C4)CC2)cc1Cl (single isomer, unassigned) [Compound 1.18] | – | – | 5.96 | 1.58 | – | – | – | –
CC(C)[C@](O)(C(=O)N1CCC2(CC1)CN(C1CCN(c3ccc(C(=O)N(C)C)c(Cl)c3)CC1)C2)C(F)(F)F (single isomer, unassigned) [Compound 1.74] | > 30 | – | 1.25 | 0.75 | – | – | – | –
CN(C)C(=O)c1ccc(N2CCN(C3CC4(C3)CN(S(=O)(=O)c3ccccc3C(F)(F)F)C4)CC2)cc1Cl [Compound 1.5, 2-chloro-N,N-dimethyl-4-(4-(2-(2-(trifluoromethyl)phenylsulfonyl)-2-azaspiro[3.3]heptan-6-yl)piperazin-1-yl)benzamide] | – | – | > 30 | 1.11 | – | – | – | –
CN(C)C(=O)c1ccc(-c2nnc(C3=CCN(S(=O)(=O)c4ccccc4Cl)CC3)s2)cc1Cl [Compound 1.12, 2-chloro-4-(5-(1-(2-chlorophenylsulfonyl)-1,2,3,6-tetrahydropyridin-4-yl)-1,3,4-thiadiazol-2-yl)-N,N-dimethylbenzamide] | 14.6 | > 30 | 4.1 | 0.211 | 15.3 | – | – | –
O=C(N1CCC(C2CCN(c3cc(Cl)c4c(=O)[nH]ccc4c3)CC2)CC1)[C@](O)(c1ccccc1)C(F)(F)F [Compound 1.19, (R)-8-chloro-6-(1′-(3,3,3-trifluoro-2-hydroxy-2-phenylpropanoyl)-4,4′-bipiperidin-1-yl)isoquinolin-1(2H)-one] | 3.7 | 6.9 | 0.41 | 0.451 | 7.2 | – | – | –
O=C(N1CCC(N2CCN(c3cc(Cl)c4c(=O)[nH]ccc4c3)CC2)CC1)C1(c2ccccc2)CCC1 [Compound 1.29, 8-chloro-6-(4-(1-(1-phenylcyclobutanecarbonyl)piperidin-4-yl)piperazin-1-yl)isoquinolin-1(2H)-one] | – | – | 8.63 | 0.92 | – | – | – | –
CN(C)C(=O)c1ccc(N[C@H]2CCN(C3CCN(C(=O)[C@](O)(c4ccccc4)C(F)(F)F)CC3)C2)cc1Cl [Compound 1.46, 2-chloro-N,N-dimethyl-4-((S)-1-(1-((R)-3,3,3-trifluoro-2-hydroxy-2-phenylpropanoyl)piperidin-4-yl)pyrrolidin-3-ylamino)benzamide] | – | > 30 | – | > 30 | > 30 | > 30 | > 30 | –
CN(C)C(=O)c1ccc(NC2CCN(C3CCN(C(=O)[C@](O)(c4ccccc4)C(F)(F)F)CC3)CC2)cc1Cl [Compound 1.47, (R)-2-chloro-N,N-dimethyl-4-(1′-(3,3,3-trifluoro-2-hydroxy-2-phenylpropanoyl)-1,4′-bipiperidin-4-ylamino)benzamide] | – | > 30 | – | 2.91 | > 30 | > 30 | > 30 | –
CN(C)C(=O)c1ccc(NC2CN(C3CCN(C(=O)C4(c5ccc(F)cc5)CCC4)CC3)C2)cc1Cl [Compound 1.49, 2-chloro-4-(1-(1-(1-(4-fluorophenyl)cyclobutanecarbonyl)piperidin-4-yl)azetidin-3-ylamino)-N,N-dimethylbenzamide] | – | 15.1 | – | 15.9 | 15 | 17.8 | > 30 | –
CN(C)C(=O)c1ccc(-c2nnc(N3CCC4(CCN(S(=O)(=O)c5ccccc5Cl)CC4)C3)s2)cc1Cl [Compound 1.50, 2-chloro-4-(5-(8-(2-chlorophenylsulfonyl)-2,8-diazaspiro[4.5]decan-2-yl)-1,3,4-thiadiazol-2-yl)-N,N-dimethylbenzamide] | 23.8 | 14.4 | – | – | 17 | 15.4 | 14.6 | 14.5
CN(C)C(=O)c1ccc(-c2nnc(N3CC4(CCN(S(=O)(=O)c5ccccc5Cl)CC4)C3)s2)cc1Cl [Compound 1.51, 2-chloro-4-(5-(7-(2-chlorophenylsulfonyl)-2,7-diazaspiro [3.5]nonan-2-yl)-1,3,4-thiadiazol-2-yl)-N,N-dimethylbenzamide] | > 29 | 4.47 | – | – | 5.44 | 4.46 | 5.93 | 4.18
CN(C)C(=O)c1ccc(NC2CN(C3CCN(C(=O)C4(c5c(F)cccc5Cl)CCCC4)CC3)C2)cc1Cl [Compound 1.56, 2-chloro-4-(1-(1-(1-(2-chloro-6-fluorophenyl)cyclopentanecarbonyl)piperidin-4-yl)azetidin-3-ylamino)-N,N-dimethylbenzamide] | 12.9 | 12.4 | – | – | 13.8 | 12.4 | 14.5 | 12.8
CC(C)C(O)(C(=O)N1CCC(N2CC[C@@H](Nc3ccc(C(=O)N(C)C)c(Cl)c3)C2)CC1)C(F)(F)F (stereo partly drawn) [Compound 1.58, 2-chloro-4-((3R)-1-(1-(2-hydroxy-3-methyl-2-(trifluoromethyl)butanoyl)piperidin-4-yl)pyrrolidin-3-ylamino)-N,N-dimethylbenzamide] | > 30 | > 30 | – | – | > 30 | > 30 | > 30 | > 30
CN(C)C(=O)c1ccc(OC2CN(C3CCN(C(=O)[C@](O)(c4ccccc4)C(F)(F)F)CC3)C2)cc1Cl [Compound 1.77, (R)-2-chloro-N,N-dimethyl-4-(1-(1-(3,3,3-trifluoro-2-hydroxy-2-phenylpropanoyl)piperidin-4-yl)azetidin-3-yloxy)benzamide] | > 30 | – | 19.5 | 1.53 | – | – | – | –
CC1CC(N2CC(Nc3ccc(C(=O)N(C)C)c(Cl)c3)C2)CCN1S(=O)(=O)c1ccccc1Cl (centres unmarked) [Compound 1.84, 2-chloro-4-(1-(1-(2-chlorophenylsulfonyl)-2-methylpiperidin-4-yl)azetidin-3-ylamino)-N,N-dimethylbenzamide] | – | – | 16.1 | 1.14 | – | – | – | –
